Patent publication US20250230193A1, “CYCLIC COMPOUND HAVING SELECTIVE KRAS INHIBITORY EFFECT ON HRAS AND NRAS” (CHUGAI SEIYAKU KABUSHIKI KAISHA, priority 2022, published 2025)
Where a SMILES comes first, the peptide text is derived from it. Bridges are numbered along the chain shown (N, C = ends). [ ]: non-standard residue; d: D form. The star is where a group is joined. hPhe(3-Cl-4-CF3) = N[C@@H](CCc1ccc(C(F)(F)F)c(Cl)c1)C(=O)O; NPrPhe(4-CF3) = CCCN[C@@H](Cc1ccc(C(F)(F)F)cc1)C(=O)O; NMeGly(cPent) = CN[C@H](C(=O)O)C1CCCC1; NMeD = CN[C@@H](CC(=O)O)C(=O)O; NMeL = CN[C@@H](CC(C)C)C(=O)O; Morpholide = C1CN(*)CCO1; Ac5c = NC1(C(=O)O)CCCC1; Sar = CNCC(=O)O

Legend:
[1] = molecular target: GDP-bound NRAS wild-type protein (Homo sapiens, UniProt P01111); assay: Binding to NRAS by surface plasmon resonance (SPR), Single Cycle Kinetics
Sequence of GDP-bound NRAS wild-type protein (P01111 whole entry): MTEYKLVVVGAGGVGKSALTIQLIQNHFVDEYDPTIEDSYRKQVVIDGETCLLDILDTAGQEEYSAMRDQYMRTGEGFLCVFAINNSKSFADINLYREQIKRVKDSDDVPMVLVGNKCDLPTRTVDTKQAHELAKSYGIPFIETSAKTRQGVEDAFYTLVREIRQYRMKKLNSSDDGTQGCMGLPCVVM

[2] = molecular target: GDP-bound HRAS wild-type protein (Homo sapiens, UniProt P01112); assay: Binding to HRAS by surface plasmon resonance (SPR), Single Cycle Kinetics
Sequence of GDP-bound HRAS wild-type protein (P01112 whole entry): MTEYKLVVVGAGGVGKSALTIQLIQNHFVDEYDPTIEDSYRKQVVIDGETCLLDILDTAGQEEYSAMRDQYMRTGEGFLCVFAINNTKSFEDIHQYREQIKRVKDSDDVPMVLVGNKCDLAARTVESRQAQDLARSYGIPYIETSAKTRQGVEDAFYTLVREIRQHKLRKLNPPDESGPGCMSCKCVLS

[3] = KD ratio, GDP-bound NRAS wild-type vs GDP-bound KRAS wild-type, SPR
[4] = KD ratio, GDP-bound HRAS wild-type vs GDP-bound KRAS wild-type, SPR
[5] = KD ratio NRAS/KRAS, class symbols
[6] = KD ratio HRAS/KRAS, class symbols

Question: With `CCC[C@H]1C(=O)N[C@@H]([C@@H](C)CC)C(=O)N(C)CC(=O)N(C)[C@H]2C/C=C\CCN(C2=O)[C@@H](Cc2ccc(C)cc2)C(=O)N(C)CC(=O)N[C@@H](CCc2ccc(C(F)(F)F)c(Cl)c2)C(=O)N2C[C@H](C)C[C@H]2C(=O)NC2(CC(C)(C)C2)C(=O)N(C)[C@@H](C2CCCC2)C(=O)N(C)[C@H](C(=O)N(C)CC)CC(=O)N1C` [PP1894] as the molecule, how does the “NRAS/KRAS (ratio of KD value for NRAS to KD value for KRAS)” value [1, 3] read?
Answer: A (a compound having 10 or more and less than 20 is denoted as A)

Question: What about the “HRAS/KRAS (ratio of KD value for HRAS to KD value for KRAS)” value [2, 4] of the same molecule?
Answer: A (a compound having 10 or more and less than 20 is denoted as A)

Question: `CC[C@H](C)[C@@H]1NC(=O)[C@H](CC2CC2)N(C)C(=O)C[C@@H](C(=O)N(C)C)N(C)C(=O)[C@H](C2CCCC2)N(C)C(=O)C2(CCC2)NC(=O)[C@@H]2C[C@H](C)CN2C(=O)[C@H](CCc2ccc(C(F)(F)F)c(OC)c2)NC(=O)CN(C)C(=O)[C@H](Cc2ccc(C)cc2)N2CC/C=C\C[C@@H](C2=O)N(C)C(=O)CN(C)C1=O` [PP1861] was tested. Which “NRAS/KRAS (ratio of KD value for NRAS to KD value for KRAS)” value [1, 3] did it give?
Answer: A (a compound having 10 or more and less than 20 is denoted as A)

Question: And the “HRAS/KRAS (ratio of KD value for HRAS to KD value for KRAS)” value [2, 4]?
Answer: B (a compound having 3 or more and less than 10 is denoted as B)

Question: Which results are given for `CCC[C@H]1C(=O)N[C@@H]([C@@H](C)CC)C(=O)N(C)CC(=O)N(C)[C@H]2C/C=C\CCN(C2=O)[C@@H](Cc2ccc(C(F)(F)F)cc2)C(=O)N(C)CC(=O)N[C@@H](CCc2ccc(C(F)(F)F)c(OC)c2)C(=O)N2CC[C@H]2C(=O)NC2(CC(C)(C)C2)C(=O)N(C)[C@@H](C(CC)CC)C(=O)N(C)[C@H](C(=O)N(C)C)CC(=O)N1C` [PP2936]?
Answer: NRAS/KRAS (ratio of KD value with respect to GDP-bound NRAS wild-type protein to KD value with respect to KRAS) [1, 5]: AA (a compound having 20 or more is denoted as AA); HRAS/KRAS (ratio of KD value with respect to GDP-bound HRAS wild-type protein to KD value with respect to KRAS) [2, 6]: A (a compound having 10 or more and less than 20 is denoted as A)

Question: For `CCC[C@H]1C(=O)N[C@@H](C2CCCCC2)C(=O)N(C)CC(=O)N(C)[C@H]2C/C=C\CCN(C2=O)[C@@H](Cc2ccc(C(F)(F)F)cc2)C(=O)N(C)CC(=O)N[C@@H](CCc2ccc(C(F)(F)F)c(Cl)c2)C(=O)N2C[C@H](OCC)C[C@H]2C(=O)NC2(CC(C)(C)C2)C(=O)N(C)[C@@H](CC(C)C)C(=O)N(C)[C@H](C(=O)N(C)C)CC(=O)N1C` [PP3017], which “NRAS/KRAS (ratio of KD value with respect to GDP-bound NRAS wild-type protein to KD value with respect to KRAS)” value ([1]; KD ratio NRAS/KRAS, SPR, GDP-bound wild-type proteins) is on record?
Answer: AA (a compound having 20 or more is denoted as AA)

Question: And the “HRAS/KRAS (ratio of KD value with respect to GDP-bound HRAS wild-type protein to KD value with respect to KRAS)” value ([2]; KD ratio HRAS/KRAS, SPR, GDP-bound wild-type proteins)?
Answer: A (a compound having 10 or more and less than 20 is denoted as A)

Question: What does the source list for `CCO[C@@H]1C[C@H]2C(=O)NC3(CC(C)(C)C3)C(=O)N(C)[C@@H](C3CCCC3)C(=O)N(C)[C@H](C(=O)N(C)CC)CC(=O)N(C)[C@@H](COC)C(=O)N[C@@H]([C@@H](C)CC)C(=O)N(C)CC(=O)N(C)[C@H]3C/C=C\CCN(C3=O)[C@@H](Cc3ccc(C(F)(F)F)cc3)C(=O)N(C)CC(=O)N[C@@H](CCc3ccc(Cl)c(Cl)c3)C(=O)N2C1` [PP2835]?
Answer: NRAS/KRAS (ratio of KD value with respect to GDP-bound NRAS wild-type protein to KD value with respect to KRAS) [1, 5]: A (a compound having 10 or more and less than 20 is denoted as A); HRAS/KRAS (ratio of KD value with respect to GDP-bound HRAS wild-type protein to KD value with respect to KRAS) [2, 6]: A (a compound having 10 or more and less than 20 is denoted as A)

Question: What does the source list for `CC[C@H](C)[C@@H]1NC(=O)[C@H](C2CC2)N(C)C(=O)C[C@@H](C(=O)N(C)CC)N(C)C(=O)[C@H](C2CCCC2)N(C)C(=O)C2(CC(C)(C)C2)NC(=O)[C@@H]2C[C@H](C)CN2C(=O)[C@H](CCc2ccc(C(F)(F)F)c(OC)c2)NC(=O)CN(C)C(=O)[C@H](Cc2ccc(C(F)(F)F)cc2)N2CC/C=C\C[C@@H](C2=O)N(C)C(=O)CN(C)C1=O` [PP2007]?
Answer: NRAS/KRAS (ratio of KD value for NRAS to KD value for KRAS) [1, 3]: AA (a compound having 20 or more is denoted as AA); HRAS/KRAS (ratio of KD value for HRAS to KD value for KRAS) [2, 4]: B (a compound having 3 or more and less than 10 is denoted as B)

Question: Which results are given for `CCCN1C(=O)CN(C)C(=O)[C@@H]2CCCN2C(=O)[C@H]([C@@H](C)CC)NC(=O)[C@H](CC(C)C)N(C)C(=O)C[C@@H](C(=O)N2CCOCC2)N(C)C(=O)[C@H](C2CCCC2)N(C)C(=O)C2(CCCC2)NC(=O)[C@@H]2CCCN2C(=O)[C@H](CCc2ccc(C(F)(F)F)c(Cl)c2)NC(=O)CN(C)C(=O)[C@@H]1Cc1ccc(C(F)(F)F)cc1` [PP0165] ([NMeL]IP[Sar][NPrPhe(4-CF3)][Sar][hPhe(3-Cl-4-CF3)]P[Ac5c][NMeGly(cPent)][NMeD]-Morpholide; lactam N-11)?
Answer: NRAS/KRAS (ratio of KD for GDP-bound NRAS wild-type to KD for KRAS) ([1]; KD ratio NRAS/KRAS, SPR): B (a compound having 3 or more and less than 10 is denoted as B); HRAS/KRAS (ratio of KD for GDP-bound HRAS wild-type to KD for KRAS) ([2]; KD ratio HRAS/KRAS, SPR): B (a compound having 3 or more and less than 10 is denoted as B)

Question: `CCO[C@@H]1C[C@H]2C(=O)NC3(CCC3)C(=O)N(C)[C@@H](C3CCCC3)C(=O)N(C)[C@H](C(=O)N3CCOCC3)CC(=O)N(C)[C@@H](Cc3ccccc3C#N)C(=O)N[C@@H]([C@@H](C)CC)C(=O)N(C)CC(=O)N(C)[C@H]3CCCCCN(C3=O)[C@@H](Cc3ccc(F)cc3)C(=O)N(C)CC(=O)N[C@@H](CCc3cc(F)c(C(F)(F)F)c(F)c3)C(=O)N2C1` [PP1185] was tested. Which “NRAS/KRAS (ratio of KD value with respect to NRAS to KD value with respect to KRAS)” value [1, 3] did it give?
Answer: B (a compound having 3 or more and less than 10 is denoted as B)

Question: What about the “HRAS/KRAS (ratio of KD value with respect to HRAS to KD value with respect to KRAS)” value [2, 4] of the same molecule?
Answer: B (a compound having 3 or more and less than 10 is denoted as B)

Question: What does the source list for `CCC[C@H]1C(=O)N[C@@H]([C@@H](C)CC)C(=O)N(C2CC2)CC(=O)N(C)[C@H]2C/C=C\CCN(C2=O)[C@@H](Cc2ccc(C)cc2)C(=O)N(C)CC(=O)N[C@@H](CCc2ccc(Cl)c(Cl)c2)C(=O)N2C[C@H](OC(C)C)C[C@H]2C(=O)NC2(CC(C)(C)C2)C(=O)N(C)[C@@H](C2CCCC2)C(=O)N(C)[C@H](C(=O)N(C)C)CC(=O)N1C` [PP2571]?
Answer: NRAS/KRAS (ratio of KD value with respect to GDP-bound NRAS wild-type protein to KD value with respect to KRAS) [1, 5]: A (a compound having 10 or more and less than 20 is denoted as A); HRAS/KRAS (ratio of KD value with respect to GDP-bound HRAS wild-type protein to KD value with respect to KRAS) [2, 6]: A (a compound having 10 or more and less than 20 is denoted as A)

Question: With `CCC[C@H]1C(=O)N[C@@H]([C@@H](C)CC)C(=O)N(C2CC2)CC(=O)N(C)[C@H]2C/C=C\CCN(C2=O)[C@@H](Cc2ccc(C)cc2)C(=O)N(C)CC(=O)N[C@@H](CCc2ccc(Cl)c(Cl)c2)C(=O)N2C[C@H](OCC)C[C@H]2C(=O)NC2(CC(C)(C)C2)C(=O)N(C)[C@@H](CC2CCC2)C(=O)N(C)[C@H](C(=O)N(C)C)CC(=O)N1C` [PP2761] as the molecule, how does the “NRAS/KRAS (ratio of KD value with respect to GDP-bound NRAS wild-type protein to KD value with respect to KRAS)” value [1, 5] read?
Answer: A (a compound having 10 or more and less than 20 is denoted as A)

Question: And the “HRAS/KRAS (ratio of KD value with respect to GDP-bound HRAS wild-type protein to KD value with respect to KRAS)” value [2, 6]?
Answer: A (a compound having 10 or more and less than 20 is denoted as A)

Question: Which “NRAS/KRAS (ratio of KD value with respect to GDP-bound NRAS wild-type protein to KD value with respect to KRAS)” value ([1]; KD ratio NRAS/KRAS, SPR) does the source give for `CC[C@H](C)[C@@H]1NC(=O)[C@H](CC(C)C)N(C)C(=O)C[C@@H](C(=O)N(C)C)N(C)C(=O)[C@H](C2CCCC2)N(C)C(=O)C2(CCC2)NC(=O)[C@@H]2CCCN2C(=O)[C@H](CCc2cc(F)c(C(F)(F)F)c(F)c2)NC(=O)CN(C)C(=O)[C@H](Cc2ccc(C(F)(F)F)cc2)N2CCCCC[C@@H](C2=O)N(C)C(=O)CN(C)C1=O` [PP0512] here?
Answer: B (a compound having 3 or more and less than 10 is denoted as B)

Question: What about the “HRAS/KRAS (ratio of KD value with respect to GDP-bound HRAS wild-type protein to KD value with respect to KRAS)” value ([2]; KD ratio HRAS/KRAS, SPR) of the same molecule?
Answer: B (a compound having 3 or more and less than 10 is denoted as B)
